Test results reported in patent US4499187A, “Method for evaluating mutagenicity” (Mobil Oil Corporation, priority 1984, dated 1985).

Key:
[1] = system: Salmonella typhimurium tester strain TA98; assay: Modified Ames test with induced hamster liver S9 (TA98 revertants/plate); assay type: cell-based; details: 2 ug per plate
Protocol: (§1) The hydrocarbon mixture to be assayed is extracted with an equal volume of DMSO five times, and the extracts are combined. The combined extract, which serves as surrogate for the hydrocarbon itself, is assayed using Salmonella typhimurium tester strain TA98 together with Aroclor 1254-induced rat liver S9. Prior to use, the rat liver S9 homogenate, obtained from Litton Bionetics, Kensington, Md., was stored at -80° C., and thawed on ice for 4 hours prior to use.
The assay is conducted by first introducing into a series of sterile capped culture tubes up to about eight different doses of the combined extract. The doses, usually in the range of 10 to 75 microliters, are selected to delimit the linear portion of the doseresponse curve. Duplicate or triplicate tubes are prepared for each dose level. This is followed by 0.5 ml S9 mix containing 400 μl S9, 8 μM MgCl2, 33 μM KCl, 5 μM glucose-6-phosphate, 4 μM NADP and 100 μM sodium phosphate (pH 7.4), and 0.1 ml Salmonella typhimurium broth culture (1×10^9 cells/ml). The cultures are incubated at 37° C. with agitation for 20 minutes, following which top agar (0.6% agar, 0.5% NaCl, 0.5 mM histidine-biotin) is added. The tubes are vortexed to ensure adequate mixing and the contents overlaid on 30 ml Vogel-Bonner minimal media plates. Plates are incubated inverted at 37° C. in the dark and revertant colonies are counted 48 hours later. […]

[2] = system: Salmonella typhimurium tester strain TA98; assay: Modified Ames test with Aroclor 1254-induced rat liver S9 on DMSO extract (specific mutagenic activity, revertants); assay type: cell-based
Protocol: as §1
The assay is conducted by first introducing into a series of sterile capped culture tubes up to about eight different doses of the combined extract. The doses, usually in the range of 10 to 75 microliters, are selected to delimit the linear portion of the doseresponse curve. Duplicate or triplicate tubes are prepared for each dose level. […] Plates are incubated inverted at 37° C. in the dark and revertant colonies are counted 48 hours later.
Spontaneous reversion rates (47±8.5) and negative (solvent) control rates (47±8.5) were determined for all tests. […]
Specific mutagenic activity is assessed from the slope of the linear portion of the dose response curve that is obtained, and may be reported as revertants per μl of extract. […]

SMILES: Nc1ccc2cc3ccccc3cc2c1 [2-aminoanthracene]
- TA98 Revertants/Plate, 400 ul Hamster S9 ([1]; 400 ul hamster S9): 639 Revertants/Plate
- TA98 Revertants/Plate, 400 ul Hamster S9 + 2xNADP ([1]; 400 ul hamster S9 + 2xNADP (8 mM)): 977 Revertants/Plate
- TA98 Revertants/Plate, 400 ul Rat S9 ([2]; 2 ug per plate, 400 ul rat S9): 313 Revertants/Plate
- revertants (positive control) ([2]; 2 μg/plate, TA98, rat liver S9): 441±285 revertants
